Assay results published in ChEMBL document CHEMBL1201862, “PubChem BioAssay data set” (2004).
Active and inactive are the calls of the source.

Assays:
[1] = cytotoxicity toward DRD oncogenic fibroblasts, dose response, cell-based, non-viral oncogenic, luminescence (AID 1934); type: functional; conditions: Homo sapiens
Genome polyprotein = Genome polyprotein (Hepatitis C virus, UniProt Q2Q167); test: HCV core protein dimerization inhibitors, dose response, biochemical, TR-FRET (AID 2159); design: species or system Hepacivirus hominis;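 note: blocks dimerization of HCV core protein measured by TR-FRET between tagged core106 pairs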
Chain of Genome polyprotein (Q2Q167 whole entry): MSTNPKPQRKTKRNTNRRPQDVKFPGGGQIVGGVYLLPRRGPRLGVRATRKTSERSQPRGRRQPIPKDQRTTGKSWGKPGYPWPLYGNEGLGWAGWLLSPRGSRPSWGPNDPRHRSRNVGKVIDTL

[2] = target: UDP-galactopyranose mutase (Mycobacterium tuberculosis, UniProt P9WIQ1); test: Inhibitors of Mycobacterium tuberculosis UDP-galactopyranose mutase (UGM) enzyme Measured in Biochemical System Using Plate Reader - 2105-02_Inhibitor_Dose_CherryPick_Activity. [Related pubchem assays (depositor defined):AID504439]
Chain of UDP-galactopyranose mutase (P9WIQ1 whole entry): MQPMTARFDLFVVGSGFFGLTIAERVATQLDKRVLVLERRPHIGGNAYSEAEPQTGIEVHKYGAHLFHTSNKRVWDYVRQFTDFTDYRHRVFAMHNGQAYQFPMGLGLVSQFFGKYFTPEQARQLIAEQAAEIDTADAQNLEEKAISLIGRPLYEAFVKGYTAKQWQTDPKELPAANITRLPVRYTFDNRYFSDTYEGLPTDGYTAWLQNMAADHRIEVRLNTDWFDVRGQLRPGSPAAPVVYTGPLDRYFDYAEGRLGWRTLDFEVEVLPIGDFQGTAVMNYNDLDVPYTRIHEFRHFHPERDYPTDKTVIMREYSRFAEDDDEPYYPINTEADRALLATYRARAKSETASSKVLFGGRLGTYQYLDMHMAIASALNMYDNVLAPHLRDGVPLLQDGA

[3] = target: Protein-tyrosine kinase 2-beta (Homo sapiens, UniProt Q14289);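 note: potency of inhibitors of PYK2 kinase phosphorylation of poly-GT substrate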
Chain of Protein-tyrosine kinase 2-beta (Q14289 whole entry): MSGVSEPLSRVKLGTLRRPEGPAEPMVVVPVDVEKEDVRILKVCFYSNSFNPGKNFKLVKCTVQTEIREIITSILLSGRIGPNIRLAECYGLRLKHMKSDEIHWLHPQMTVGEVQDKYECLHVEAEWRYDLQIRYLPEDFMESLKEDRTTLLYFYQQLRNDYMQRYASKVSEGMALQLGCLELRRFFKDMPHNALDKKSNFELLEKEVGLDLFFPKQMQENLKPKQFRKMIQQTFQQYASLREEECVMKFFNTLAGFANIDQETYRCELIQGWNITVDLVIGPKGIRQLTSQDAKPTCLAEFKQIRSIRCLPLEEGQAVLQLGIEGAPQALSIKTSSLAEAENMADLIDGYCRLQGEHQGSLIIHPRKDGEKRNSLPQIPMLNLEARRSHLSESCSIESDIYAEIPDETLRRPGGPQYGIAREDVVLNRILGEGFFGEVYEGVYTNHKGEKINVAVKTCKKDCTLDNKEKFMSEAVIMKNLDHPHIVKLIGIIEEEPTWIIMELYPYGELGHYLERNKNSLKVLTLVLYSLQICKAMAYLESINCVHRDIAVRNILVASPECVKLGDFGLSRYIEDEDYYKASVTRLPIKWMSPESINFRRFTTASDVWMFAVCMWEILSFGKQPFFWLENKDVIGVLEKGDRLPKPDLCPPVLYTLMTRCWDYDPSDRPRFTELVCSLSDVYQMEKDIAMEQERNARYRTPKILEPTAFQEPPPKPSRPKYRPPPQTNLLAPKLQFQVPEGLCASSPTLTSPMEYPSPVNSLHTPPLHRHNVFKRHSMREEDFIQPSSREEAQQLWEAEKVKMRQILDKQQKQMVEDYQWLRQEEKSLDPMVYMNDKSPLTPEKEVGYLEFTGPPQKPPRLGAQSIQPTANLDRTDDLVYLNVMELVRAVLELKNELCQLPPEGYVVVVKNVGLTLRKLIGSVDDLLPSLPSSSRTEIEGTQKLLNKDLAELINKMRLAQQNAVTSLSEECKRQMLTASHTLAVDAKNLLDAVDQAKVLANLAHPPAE

[4] = growth suppression of beta-catenin-knockout colon cells, dose response, cell-based, HCT116, human colon tumor (AID 1045); type: functional;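 note: HCT116 colon tumor cells with beta catenin knocked out; cells exposed to compound for 60 hours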
[5] = target: Mitochondrial peptide methionine sulfoxide reductase (Bos taurus, UniProt P54149); test: Absorbance-based biochemical high throughput dose response assay for activators of Methionine sulfoxide reductase A (MsrA).; type: functional
Chain of Mitochondrial peptide methionine sulfoxide reductase (P54149 whole entry): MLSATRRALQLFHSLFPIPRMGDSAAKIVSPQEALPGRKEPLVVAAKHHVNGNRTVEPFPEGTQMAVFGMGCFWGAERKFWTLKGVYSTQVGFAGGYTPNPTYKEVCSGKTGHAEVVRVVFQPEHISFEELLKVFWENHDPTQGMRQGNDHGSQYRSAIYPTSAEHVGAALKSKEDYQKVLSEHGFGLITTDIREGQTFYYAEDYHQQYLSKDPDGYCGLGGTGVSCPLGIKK

[6] = target: T1, Apoptotic protease-activating factor 1 (Homo sapiens, UniProt O14727); test: activation of Apaf-1 mediated apoptosis – fluorescent, uHTS hits, dose response (AID 588554); type: functional
T1 sequence (O14727 whole entry): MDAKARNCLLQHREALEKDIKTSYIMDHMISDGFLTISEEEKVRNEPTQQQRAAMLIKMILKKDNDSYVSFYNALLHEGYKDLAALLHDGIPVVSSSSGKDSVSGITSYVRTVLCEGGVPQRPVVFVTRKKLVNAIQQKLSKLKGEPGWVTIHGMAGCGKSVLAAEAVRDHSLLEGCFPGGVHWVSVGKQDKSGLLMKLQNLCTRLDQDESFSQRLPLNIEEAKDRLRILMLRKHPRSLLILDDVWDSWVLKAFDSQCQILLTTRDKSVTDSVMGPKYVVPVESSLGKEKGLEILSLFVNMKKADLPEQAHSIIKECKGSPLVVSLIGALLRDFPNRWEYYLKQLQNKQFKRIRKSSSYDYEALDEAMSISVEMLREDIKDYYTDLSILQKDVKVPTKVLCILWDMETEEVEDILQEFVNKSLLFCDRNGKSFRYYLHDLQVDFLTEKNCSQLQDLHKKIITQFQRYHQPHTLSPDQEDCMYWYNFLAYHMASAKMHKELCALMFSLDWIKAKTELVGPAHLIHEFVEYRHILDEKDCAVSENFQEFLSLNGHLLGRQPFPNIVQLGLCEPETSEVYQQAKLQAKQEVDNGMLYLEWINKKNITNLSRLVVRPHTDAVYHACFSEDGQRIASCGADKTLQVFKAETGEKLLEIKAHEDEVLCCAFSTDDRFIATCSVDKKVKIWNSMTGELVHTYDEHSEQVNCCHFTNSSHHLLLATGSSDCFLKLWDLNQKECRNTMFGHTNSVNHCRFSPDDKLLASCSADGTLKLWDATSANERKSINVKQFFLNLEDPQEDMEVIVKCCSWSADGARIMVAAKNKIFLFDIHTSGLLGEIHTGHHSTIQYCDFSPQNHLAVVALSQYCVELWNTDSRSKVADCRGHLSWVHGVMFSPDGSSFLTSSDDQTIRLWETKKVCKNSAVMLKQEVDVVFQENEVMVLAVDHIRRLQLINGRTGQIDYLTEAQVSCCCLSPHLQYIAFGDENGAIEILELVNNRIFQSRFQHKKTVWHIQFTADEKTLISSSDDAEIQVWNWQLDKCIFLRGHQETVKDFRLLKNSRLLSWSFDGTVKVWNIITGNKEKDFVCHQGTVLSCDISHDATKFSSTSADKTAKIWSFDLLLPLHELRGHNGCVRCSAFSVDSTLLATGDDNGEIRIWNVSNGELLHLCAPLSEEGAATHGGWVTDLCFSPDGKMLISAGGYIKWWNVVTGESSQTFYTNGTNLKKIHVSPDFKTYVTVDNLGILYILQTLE

[7] = target: T2, Tyrosine-protein phosphatase non-receptor type 22 (Homo sapiens, UniProt Q9Y2R2); test: SAR LYP1 Fluorescent Assay using pCAP substrate for In Vitro dose response studies - Set 2. [Related pubchem assays (depositor defined):AID1779, AID1784, AID2135, AID449727]; type: functional
T2 sequence (Q9Y2R2 whole entry): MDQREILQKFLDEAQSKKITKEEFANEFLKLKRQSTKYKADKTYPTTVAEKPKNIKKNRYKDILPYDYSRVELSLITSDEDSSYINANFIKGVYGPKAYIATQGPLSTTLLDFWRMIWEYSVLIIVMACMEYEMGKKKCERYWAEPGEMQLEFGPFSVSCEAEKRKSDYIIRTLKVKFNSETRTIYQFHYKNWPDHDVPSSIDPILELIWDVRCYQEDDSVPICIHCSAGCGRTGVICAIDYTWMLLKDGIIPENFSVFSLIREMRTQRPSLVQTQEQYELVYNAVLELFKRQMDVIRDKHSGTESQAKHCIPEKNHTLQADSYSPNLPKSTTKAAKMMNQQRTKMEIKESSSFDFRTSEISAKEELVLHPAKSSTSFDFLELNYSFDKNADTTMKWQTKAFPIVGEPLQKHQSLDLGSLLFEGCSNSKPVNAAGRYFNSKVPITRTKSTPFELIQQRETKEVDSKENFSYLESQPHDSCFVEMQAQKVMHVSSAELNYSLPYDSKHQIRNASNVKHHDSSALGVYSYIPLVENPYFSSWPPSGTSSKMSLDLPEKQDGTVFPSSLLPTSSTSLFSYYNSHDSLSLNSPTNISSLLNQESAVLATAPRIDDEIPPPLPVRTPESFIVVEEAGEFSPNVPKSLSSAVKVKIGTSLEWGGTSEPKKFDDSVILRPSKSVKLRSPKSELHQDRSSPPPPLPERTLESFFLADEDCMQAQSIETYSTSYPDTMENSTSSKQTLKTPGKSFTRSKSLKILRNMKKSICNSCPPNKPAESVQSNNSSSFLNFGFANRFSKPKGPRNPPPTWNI

[8] = target: T2, Tyrosine-protein phosphatase non-receptor type 22; test: SAR LYP1 Fluorescent Assay using OMFP substrate for In Vitro dose response studies - Set 4. [Related pubchem assays (depositor defined):AID1779, AID1784, AID2140, AID2686]; type: functional
Cysteine protease ATG4B = target: T3, Cysteine protease ATG4B (Homo sapiens, UniProt Q9Y4P1); type: functional;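 note: Fluorescence-based dose-response confirmation assay measuring inhibition of ATG4B activity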
T3 sequence (Q9Y4P1 whole entry): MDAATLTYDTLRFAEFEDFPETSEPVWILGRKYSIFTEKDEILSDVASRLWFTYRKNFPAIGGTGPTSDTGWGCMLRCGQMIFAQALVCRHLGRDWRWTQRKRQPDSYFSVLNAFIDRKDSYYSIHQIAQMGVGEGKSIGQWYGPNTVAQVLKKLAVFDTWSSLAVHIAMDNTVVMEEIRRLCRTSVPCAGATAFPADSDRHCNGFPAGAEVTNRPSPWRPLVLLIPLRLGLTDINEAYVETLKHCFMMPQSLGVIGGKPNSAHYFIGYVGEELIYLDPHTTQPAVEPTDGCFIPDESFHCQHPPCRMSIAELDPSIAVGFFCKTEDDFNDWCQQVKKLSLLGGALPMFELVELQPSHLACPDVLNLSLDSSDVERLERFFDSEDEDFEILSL

For CCN1/C(=C/c2ccc3cc(C)ccc3[n+]2CC)Sc2cc(C)c(C)cc21, the EC50 [1] was 1.43 µM (active).

For Nc1ccc2nc3c(O)nc(S)nc3nc2c1, the IC50 (Genome polyprotein) was > 49.8 µM (not active) and the AC50 [2] was 3.57 µM (active).

For Cc1oc2c(c1C(=O)c1ccccc1)C(=O)C(=O)c1ccccc1-2, the IC50 [3] was > 69.5 µM (not active), the EC50 [4] was 2.26 µM (active) and the EC50 [5] was 63.2 µM (inactive).

For CSc1ccc(C=NNc2ccc(S(=O)(=O)Nc3ccccc3C(=O)O)cc2[N+](=O)[O-])cc1, the EC50 [6] was 8.23 µM (active).

For O=C(O)COc1ccc(/C=N/NC(=O)c2ccc(-c3csc(Nc4ccc(Cl)cc4)n3)cc2)cc1, the IC50 [7] was 0.249 µM (active) and the IC50 [8] was 1.47 µM (active).

With CC(/C=C1\SC(=S)N(NS(=O)(=O)c2ccccc2)C1=O)=C\c1ccccc1 the IC50 (Cysteine protease ATG4B) was 12 µM (active).
